The record followed here is US7220732B2, “Compounds useful as photodynamic therapeutic agents” (priority 2002, dated 2007).

Where two headings read alike, the source gives them in different places.

Common to all, as to format: cell-based
In experiment [1] the test system is HeLa cells. The experiment in a line: Fluorescence microscopy uptake study in HeLa cells. The note with it: 10^−5 M, water/Cremophor. The protocol:
(§1) Cells were seeded at a density of 30,000 cells/well in chamber slides and allowed to adhere for 24 hr. A compound of the present invention (10^−5 M) was then added to each chamber and incubated at 37° C. in the dark over time, for example, 15 min, 30 min, 1 hr, 3 hr and 6 hr. The medium was removed after the specified time and the cells were washed 4 times with medium free of that compound of the invention. The cells were then fixed with 3.7% (v/v) formaldehyde for 15 min at 37° C. The fixative solution was removed and the cells were washed twice with sterile PBS. DAPI nuclear stain (1/1000) was then incubated with the cells for 10 is min at 37° C., following which the cells were washed twice with PBS. Cells were then mounted in Vectashield (Trade Mark) mounting medium.
LabWorks (Bioimaging Systems) was used to calculate the average fluorescence intensity per cell for each of the different time points used in the uptake and efflux studies for the compounds of the present invention. […] The DAPI filter was used to accurately count the number of cells in each field of view and the rhodamine filter was used to quantify the fluorescence of the compounds of the present invention. […]
(§2) Using the assay method set out above under the heading “Fluorescence Microscopy”, the uptake of 2a was examined for HeLa and MRC5 […] cell lines and the data are illustrated in FIGS. 6a and 6b, respectively. […]

A further experiment relates to MRC5 cells. Briefly: Fluorescence microscopy uptake study in MRC5 cells. As to conditions: 10^−5 M. The protocol: as §1
LabWorks (Bioimaging Systems) was used to calculate the average fluorescence intensity per cell for each of the different time points used in the uptake and efflux studies for the compounds of the present invention. […] The DAPI filter was used to accurately count the number of cells in each field of view and the rhodamine filter was used to quantify the fluorescence of the compounds of the present invention.
as §2

A further experiment has as its system HeLa cancer cells. Briefly: Preliminary light toxicity assay. The note with it: 24 hours exposure, 15 minutes irradiation >570 nm. As for the experimental part:
HeLa cancer calls were exposed to 2a in varying concentrations for 24 hours. 2a laden medium was removed and replaced with fresh medium. Cells were irradiated at constant temperature of 37° C. for 15 minutes with light from a 100 W or 500 W halogen lamp passed through a red glass and water filter barrier, thereby ensuring cells are irradiated with light of more than 570 nm. Irradiated cells were incubated for a further 24 hrs at 37° C. MT cell viability assay was performed.
The dark toxicity effect may be caused by the micellar delivery vehicle itself.

Experiment [2] has as its system HeLa cells. The experiment in a line: Light/dark cytotoxicity study (MTT) in HeLa cells. The protocol:
MRC5 and HeLa cell cultures were maintained in MEM (minimum essential medium) containing 10% (v/v) foetal calf serum (FCS), 1% (v/v) non-essential amino acids, 2 μg/ml Fungizone (Trade Mark) (amphotericin B), 50 μg/ml penicillin, 50 μg/ml streptomycin, 20 mM HEPES and 1% (v/v) L-Glutamine. Cells were passaged at least twice before use in the cytotoxicity assays.
Stock haematoporphyrin water-dimethyl sulphoxide (DMSO) (100:1 (v/v)) solutions were diluted with MEM containing 10% FCS. Cells were seeded at 5,000 cells/well in 96-well plates and incubated for 24 hr at 37° C. The 24 hour incubation period was chosen having regard to the slower uptake of haernatoporphyrin in the absence of Cremophor, when compared to the compounds of the present invention in the presence of Cremophor (see below). Cells were then incubated with haematoporphyrin in the dark for 24 hr at 37° C. The haematoporphyrin laden culture medium was then removed by filtration, the cells were washed with PBS and fresh culture medium was added to each well. A 500 W light source, passed through a red glass and water filter barrier, (to ensure cells are irradiated with light of wavelength greater than 570 nm) was used to irradiate the plates for both 15 and 30 min. Following irradiation, the cells were incubated for a further 48 hr at 37° C. before being assessed for cell survival.
Stock 2a or 2b water-Cremophor EL (Trade Mark—CAS 61791-12-6) (1:250 (v/v)) solutions were diluted with MEM containing 10% FCS. Cells were seeded at 5,000 cells/well in 96-well plates and incubated for 24 hr at 37° C. Cells were then incubated with 2a or 2b in the dark for 3 hr at 37° C. The 3 hour incubation period was chosen to reflect the faster cellular uptake of 2a or 2b in the presence of Cremophor, when compared to the cellular uptake of haematoporphyrins in the absence of Cremophor. The 2a or 2b laden culture medium was then removed by filtration, the cells were washed with PBS and fresh culture medium was added to each well. The plates were then irradiated using a 500 W light source passed through a red glass and water filter barrier, (thereby ensuring cells are irradiated with light of wavelength greater than 570 nm) for both 15 and 30 min.
Following irradiation, the cells were incubated for a further 48 hr at 37° C. before being assessed for cell survival. The dark toxicity of compounds of the present invention was also assessed in each experiment.
Cell viability was estimated using the standard MTT (microtiter tetrazolium) assay. This assay measures mitochondrial dehydrogenase activity and is based on the reduction of a soluble yellow tetrazolium salt to a blue, insoluble MTT formazan product by this enzyme. The subsequent colour change produced by viable cells was quantified using a plate reader (VICTOR^2 1420 multilabel HTS counter, Wallac). As mentioned above under the headings “Cytotoxicity”, the cells are incubated at 37° C. for 48 hours, following which the MTT solution was added to the cells at a final concentration of 0.5 mg/ml and incubated for 3 hr at 37° C. The MTT solution was then removed by filtration and 100 μl DMSO was added to each well in order to lyse the cells and release the formazan dye. The plates were read 1 hr later at 540 nm.
Prism (Trade Mark) […] was used to graph the data obtained from the MTT assays and the uptake/efflux experiments. This programme allows non-linear regression analysis and the generation of sigmoidal dose response curves. Prism (Trade Mark) also automatically calculates EC50 values.
Light toxicity assays were also carried out as described above under “Assay methods” in HeLa and MRC5 cells for haematoporphyrin (FIGS. 9 and 10), 2a (FIGS. 11 and 12) and 2b (FIGS. 13 and 14).

Experiment [3] relates to HeLa cells. Briefly: F-actin staining fluorescence microscopy of treated HeLa cells. The protocol:
FIG. 15 illustrates a control experiment which is a fluorescence microscope image of F-actin stained HeLa cells (with rhodamine phalloidine, red colour) 24 hours after treatment with Compound 2a and no exposure to light (0 min light dose). FIG. 15 illustrates such F-Actin stained cells are live.
FIG. 16 confirms cell death following treatment with Compound 2a and 30 minute 500 W light dose, using fluorescence microscopy. More specifically, FIG. 16 is a fluorescence microscope image of F-actin stained HeLa cells (with rhodamine phalloidine, red colour) 24 hours after treatment with Compound 2a and 30 minute light dose.

Turning to `F[B-]1(F)n2c(-c3ccccc3)cc(-c3ccccc3)c2N=C2C(c3ccccc3)=CC(c3ccccc3)=[N+]21` [Compound 2a], the “time of maximum uptake” value came to 300 min in the experiment with HeLa cells [1] and 200 min in the experiment with MRC5 cells. The dose response entry in the experiment on HeLa cancer cells (100 W light source, compared with 500 W) is given as “poorer response”. The EC50 with HeLa cancer cells (500 W light source) came to 1 µM; in the experiment with HeLa cells [2] (0 J/cm^2 light (no light), read-out: EC50 (dark toxicity)), 23 µM; in the experiment on HeLa cells [2] (8 J/cm^2 light (15 mins from a 500 W light source), read-out: EC50), 4.5 µM; in the experiment with HeLa cells [2] (16 J/cm^2 light (30 mins from a 500 W light source), read-out: EC50), 1.3 µM. Further, the “cell state by F-actin staining” value in the experiment with HeLa cells [3] (24 hours after treatment and 30 minute 500 W light dose) is “cell death”; in the experiment on HeLa cells [3] (24 hours after treatment, no exposure to light), “live”.
